Literature values as cited in patent US9468638B2, “Itraconazole formulations” (Texas Southern University, priority 2010, dated 2016).
Converted amounts (≈) assume the structure as drawn. Read-outs that look alike come from different tables or passages of the source.

Tests used:
[1] = pH=8.1
[2] = not given; remark: listed apart in the source
[3] = human, in vivo, iv
[4] = in vivo, iv
[5] = rat, in vivo

Row | Molecule | n-octanol/water partition coefficient log Po/w [1] | water solubility (neutral pH) | water solubility (pH=1) | solubility in PEG 400 ([2]; PEG 400) | solubility in Tween 20 ([2]; Tween 20) | reduced clearance of hydroxylpropyl-β-cyclodextrin [3] | toxicity that led to discontinuation of Sporanox I.V. Injection [4] | carcinogenicity finding [5]
1 | CCC(C)n1ncn(-c2ccc(N3CCN(c4ccc(OCC5COC(Cn6cncn6)(c6ccc(Cl)cc6Cl)O5)cc4)CC3)cc2)c1=O (centres unmarked) [Itraconazole] | 5.66 | about 1 ng/mL | approximately 4 mcg/mL | 2140 µg/mL (≈ 3030 µM) | 1190 µg/mL (≈ 1690 µM) | – | – | –
2 | hydroxylpropyl-β-cyclodextrin | – | – | – | – | – | 6 fold | renal toxicity | produced pancreatic adenocarcinomas
